The text below walks through data of patent publication US20230159510A1, “NOVEL PRMT5 INHIBITORS” (AMGEN INC., priority 2020, published 2023).

Broadly, the IC50 is the concentration that gives 50% inhibition. The Ki is the equilibrium dissociation constant of an inhibitor or competing ligand from its target.

Like-named read-outs stand apart in the source and are kept apart here.

The test system of one assay is HCT116 MTAP null cells. The assay is described as follows: HCT116 proliferation assay, MTAP null cells (CellTiter-Glo, 6 days). Conditions: read-out: Protif_ HCT116-MTAP null IC50. It is filed as cell-based. The method, boiled down: (§1)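 RPMI 1640/10% FBS; overnight attachment at 37° C, 5% CO2; 8–9-pt 1:3 titration, top 1 or 10 µM; DMSO ctrl; luminescence readout.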
In general terms: In ATP-based viability assays light output follows the ATP content of the culture.

The test system of a further assay is HCT116 WT cells. The assay is described as follows: HCT116 proliferation assay, WT cells (CellTiter-Glo, 6 days). It is filed as cell-based. To be noted: read-out: Prolif_HCT116-WT IC50. The method, boiled down: as §1
Another assay concerns the target PRMT5/MEP50 (Homo sapiens, UniProt O14744). The assay is described as follows: MTase-Glo methyl transferase assay, Method B (FL-Histone H2A, 1 µM MTA, 1 h pre-incubation). Also noted: purchased Reaction Biology Corp RD-11-292. To be noted: read-out: PRMT5 MTase Glo Ki (nM, Meth. B). It is filed as biochemical. The method, boiled down:
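PRMT5/MEP50 (4 nM) was pre-incubated 1 h with compound, 5 µM SAM and 1 µM MTA, then started with 2.5 µM FL-Histone H2A in Tris pH 8.0 buffer. After 20 h at room temperature, SAH was detected by MTase-Glo luminescence, and IC50/KI were fitted from dose-response curves.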

Chain of PRMT5/MEP50 (O14744 2-637 limits assumed): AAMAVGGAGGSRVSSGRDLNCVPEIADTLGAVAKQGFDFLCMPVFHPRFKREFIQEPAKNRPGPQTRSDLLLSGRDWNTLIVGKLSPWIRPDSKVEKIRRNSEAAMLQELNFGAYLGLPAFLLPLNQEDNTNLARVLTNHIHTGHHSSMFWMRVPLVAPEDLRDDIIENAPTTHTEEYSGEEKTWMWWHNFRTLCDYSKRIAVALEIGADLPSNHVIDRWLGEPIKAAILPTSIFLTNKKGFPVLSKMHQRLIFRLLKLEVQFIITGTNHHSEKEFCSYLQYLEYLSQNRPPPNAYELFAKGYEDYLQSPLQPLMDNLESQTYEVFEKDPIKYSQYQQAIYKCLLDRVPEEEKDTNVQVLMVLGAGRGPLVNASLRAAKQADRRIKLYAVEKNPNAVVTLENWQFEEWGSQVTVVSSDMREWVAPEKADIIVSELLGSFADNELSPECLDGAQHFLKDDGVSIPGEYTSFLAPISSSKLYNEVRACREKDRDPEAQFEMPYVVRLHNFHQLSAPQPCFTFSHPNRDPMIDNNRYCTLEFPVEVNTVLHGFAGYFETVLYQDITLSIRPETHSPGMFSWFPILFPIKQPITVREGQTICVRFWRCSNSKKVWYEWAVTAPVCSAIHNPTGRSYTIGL
Chain of PRMT5/MEP50 (Q9BQA1 2-342 partner limits assumed): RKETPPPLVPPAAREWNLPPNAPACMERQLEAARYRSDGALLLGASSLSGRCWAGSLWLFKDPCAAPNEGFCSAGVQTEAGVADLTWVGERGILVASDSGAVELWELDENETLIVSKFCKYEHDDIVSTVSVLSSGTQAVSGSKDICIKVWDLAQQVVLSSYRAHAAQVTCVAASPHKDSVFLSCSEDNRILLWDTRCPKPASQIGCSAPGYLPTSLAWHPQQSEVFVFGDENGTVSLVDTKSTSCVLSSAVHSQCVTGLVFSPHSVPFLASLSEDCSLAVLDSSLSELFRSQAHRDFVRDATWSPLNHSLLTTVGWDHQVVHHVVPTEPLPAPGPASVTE

Turning to `Cc1cc2cc(C(=O)N(Cc3ccc(C(F)(F)F)cn3)C3CCc4sc(Cl)cc43)ccc2nc1N` (stereo not drawn) [Example 607, 2-amino-N-(2-chloro-5,6-dihydro-4H-cyclopenta[b]thiophen-4-yl)-3-methyl-N-((5-(trifluoromethyl)pyridin-2-yl)methyl)quinoline-6-carboxamide], the half-inhibitory concentration (IC50) in the assay on HCT116 MTAP null cells (HCT116-MTAP null, 144 h) was 370 nM; with HCT116 WT cells (Homo sapiens, HCT-116, 144 h), more than 3200 nM. The Ki at PRMT5/MEP50 was 7.26 nM.
Taken in the same sequence, the figures for `Cc1cc2cc(C(=O)N(Cc3ccc(C(F)(F)F)cn3)C3COc4ccccc43)ccc2nc1N` (stereo not drawn) [Example 608, 2-amino-N-(2,3-dihydrobenzofuran-3-yl)-3-methyl-N-((5-(trifluoromethyl)pyridin-2-yl)methyl)quinoline-6-carboxamide] were 400 nM, more than 1000 nM and 5.26 nM.
In the case of `Cc1cc2cc(C(=O)N(Cc3ccc(C(F)(F)F)cn3)[C@@H]3c4ccccc4C[C@H]3O)ccc2nc1N` [Example 609, 2-amino-N-((1R,2R)-2-hydroxy-2,3-dihydro-1H-inden-1-yl)-3-methyl-N-((5-(trifluoromethyl)pyridin-2-yl)methyl)quinoline-6-carboxamide], the half-maximal inhibitory concentration (IC50) is 540 nM in the assay on HCT116 MTAP null cells (HCT116-MTAP null, 144 h) and more than 1000 nM in the assay on HCT116 WT cells (Homo sapiens, HCT-116, 144 h). For the same compound, the Ki at PRMT5/MEP50 came to 26.8 nM.
For the compound `Cc1cc2cc(C(=O)N(Cc3ccc(C(F)(F)F)cn3)C3COc4c3ccc(C)c4C)ccc2nc1N` (stereo not drawn) [Example 610, 2-amino-N-(6,7-dimethyl-2,3-dihydrobenzofuran-3-yl)-3-methyl-N-((5-(trifluoromethyl)pyridin-2-yl)methyl)quinoline-6-carboxamide], the half-inhibitory concentration (IC50) is 540 nM in the assay on HCT116 MTAP null cells (HCT116-MTAP null, 144 h) and more than 1000 nM in the assay on HCT116 WT cells (Homo sapiens, HCT-116, 144 h). Also, at PRMT5/MEP50, the inhibition constant Ki stood at 9.6 nM.
Turning to `COC(CN(Cc1ccc(C(F)(F)F)cn1)C(=O)c1ccc2nc(N)c(C)cc2c1)C(F)(F)F` (stereo not drawn) [Example 611, 2-amino-3-methyl-N-(3,3,3-trifluoro-2-methoxypropyl)-N-((5-(trifluoromethyl)pyridin-2-yl)methyl)quinoline-6-carboxamide], the IC50 is 70 nM in the assay with HCT116 MTAP null cells (HCT116-MTAP null, 144 h) and more than 1000 nM in the assay on HCT116 WT cells (Homo sapiens, HCT-116, 144 h). The Ki at PRMT5/MEP50 fell in the range of 3 to 7 nM.
The like results for `Cc1cc2cc(C(=O)N(Cc3ccc(C(F)(F)F)cn3)C3CCCC(O)C3)ccc2nc1N` (stereo not drawn) [Example 612, 2-amino-N-(3-hydroxycyclohexyl)-3-methyl-N-((5-(trifluoromethyl)pyridin-2-yl)methyl)quinoline-6-carboxamide] were, in that order, 340 nM, more than 1000 nM and 7.56 nM.
The like results for `COC(CN(Cc1ccc(C(F)(F)F)cn1)C(=O)c1ccc2nc(N)c(C)cc2c1)C(C)C` (stereo not drawn) [Example 613, 2-amino-N-(2-methoxy-3-methylbutyl)-3-methyl-N-((5-(trifluoromethyl)pyridin-2-yl)methyl)quinoline-6-carboxamide] were, in that order, 269 nM, 3900 nM and 4.35 nM.
In the case of `Cc1cc2cc(C(=O)N(Cc3ccc(C(F)(F)F)cn3)CC3CCn4ccnc4C3)ccc2nc1N` (stereo not drawn) [Example 614, 2-amino-3-methyl-N-((5,6,7,8-tetrahydroimidazo [1,2-a]pyridin-7-yl)methyl)-N-((5-(trifluoromethyl)pyridin-2-yl)methyl)quinoline-6-carboxamide], the IC50 is 950 nM in the assay on HCT116 MTAP null cells (HCT116-MTAP null, 144 h) and more than 1000 nM in the assay on HCT116 WT cells (Homo sapiens, HCT-116, 144 h). Moreover, the inhibitory constant (Ki) at PRMT5/MEP50 is 9.42 nM.
`Cc1cc2cc(C(=O)N(Cc3ccc(C(F)(F)F)cn3)Cc3ccc4cc[nH]c4n3)ccc2nc1N` [Example 615, N-((1H-pyrrolo [2,3-b]pyridin-6-yl)methyl)-2-amino-3-methyl-N-((5-(trifluoromethyl)pyridin-2-yl)methyl)quinoline-6-carboxamide]: the IC50 with HCT116 MTAP null cells (HCT116-MTAP null, 144 h) was found to be 276 nM; in the assay on HCT116 WT cells (Homo sapiens, HCT-116, 144 h), 3500 nM. For the same compound, the Ki at PRMT5/MEP50 came out at 1.62 nM.
Taken in the same sequence, the figures for `Cc1cc2cc(C(=O)N(Cc3ccc4[nH]c(N)nc4c3)Cc3ccc(C(F)(F)F)cn3)ccc2nc1N` [Example 616, 2-amino-N-((2-amino-1H-benzo [d]imidazol-5-yl)methyl)-3-methyl-N-((5-(trifluoromethyl)pyridin-2-yl)methyl)quinoline-6-carboxamide] were 320 nM, more than 1000 nM and 3.29 nM.
Turning to `Cc1cc2cc(C(=O)N(Cc3ccc(C(F)(F)F)cn3)CC3CCc4[nH]cnc4C3)ccc2nc1N` (stereo not drawn) [Example 617, 2-amino-3-methyl-N-((4,5,6,7-tetrahydro-1H-benzo[d]imidazol-5-yl)methyl)-N-((5-(trifluoromethyl)pyridin-2-yl)methyl)quinoline-6-carboxamide], the IC50 in the assay with HCT116 MTAP null cells (HCT116-MTAP null, 144 h) was 286 nM; with HCT116 WT cells (Homo sapiens, HCT-116, 144 h), more than 1000 nM. In addition, the inhibition constant Ki at PRMT5/MEP50 worked out at 1.72 nM.
Turning to `Cc1cc2cc(C(=O)N(Cc3ccc4[nH]ncc4c3)Cc3ccc(C(F)(F)F)cn3)ccc2nc1N` [Example 618, N-((1H-indazol-5-yl)methyl)-2-amino-3-methyl-N-((5-(trifluoromethyl)pyridin-2-yl)methyl)quinoline-6-carboxamide], the figures for the IC50 with HCT116 MTAP null cells and in the assay with HCT116 WT cells were 55 nM and 1400 nM, respectively. At PRMT5/MEP50, the Ki is 1.59 nM.
Regarding `Cc1cc2cc(C(=O)N(Cc3ccc4cn[nH]c4c3)Cc3ccc(C(F)(F)F)cn3)ccc2nc1N` [Example 619, N-((1H-indazol-6-yl)methyl)-2-amino-3-methyl-N-((5-(trifluoromethyl)pyridin-2-yl)methyl)quinoline-6-carboxamide], the IC50 stood at 128 nM in the assay on HCT116 MTAP null cells (HCT116-MTAP null, 144 h) and 1300 nM in the assay on HCT116 WT cells (Homo sapiens, HCT-116, 144 h). The Ki on PRMT5/MEP50 was 1.87 nM.
`Cc1cc2cc(C(=O)N(Cc3ccc4[nH]c(=O)oc4c3)Cc3ccc(C(F)(F)F)cn3)ccc2nc1N` [Example 620, 2-amino-3-methyl-N-((2-oxo-2,3-dihydrobenzo [d]oxazol-6-yl)methyl)-N-((5-(trifluoromethyl)pyridin-2-yl)methyl)quinoline-6-carboxamide]: the 50% inhibitory concentration (IC50) in the assay with HCT116 MTAP null cells (HCT116-MTAP null, 144 h) is 100 nM; in the assay with HCT116 WT cells (Homo sapiens, HCT-116, 144 h) it was more than 1000 nM. In addition, the inhibition constant (Ki) at PRMT5/MEP50 is 1.83 nM.
The like results for `Cc1cc2cc(C(=O)N(Cc3ccn4ccnc4c3)Cc3ccc(C(F)(F)F)cn3)ccc2nc1N` [Example 621, 2-amino-N-(imidazo[1,2-a]pyridin-7-ylmethyl)-3-methyl-N-((5-(trifluoromethyl)pyridin-2-yl)methyl)quinoline-6-carboxamide] were, in that order, 133 nM, more than 1000 nM and 3.97 nM.
The like results for `Cc1cc2cc(C(=O)N(Cc3ccc4ccoc4c3)Cc3ccc(C(F)(F)F)cn3)ccc2nc1N` [Example 622, 2-amino-N-(benzofuran-6-ylmethyl)-3-methyl-N-((5-(trifluoromethyl)pyridin-2-yl)methyl)quinoline-6-carboxamide] were, in that order, 130 nM, more than 1000 nM and 1.98 nM.
Taken in the same sequence, the figures for `Cc1cc2cc(C(=O)N(Cc3ccc4[nH]ccc4c3)Cc3ccc(C(F)(F)F)cn3)ccc2nc1N` [Example 623, N-((1H-indol-5-yl)methyl)-2-amino-3-methyl-N-((5-(trifluoromethyl)pyridin-2-yl)methyl)quinoline-6-carboxamide] were 56 nM, 900 nM and 3.14 nM.
As for `Cc1ccc2c(c1)C(N(Cc1ccc(C(F)(F)F)cn1)C(=O)c1ccc3nc(N)c(C)cc3c1)CC2` (stereo not drawn) [Example 624, 2-amino-3-methyl-N-(6-methyl-2,3-dihydro-1H-inden-1-yl)-N-((5-(trifluoromethyl)pyridin-2-yl)methyl)quinoline-6-carboxamide], the IC50 in the assay with HCT116 MTAP null cells (HCT116-MTAP null, 144 h) was 187 nM; in the assay on HCT116 WT cells (Homo sapiens, HCT-116, 144 h) it was more than 1000 nM. For the same compound, the inhibition constant (Ki) at PRMT5/MEP50 was 5.19 nM.
Consider `Cc1cc2cc(C(=O)N(Cc3ccc(C(F)(F)F)cn3)C3CCc4c(O)cccc43)ccc2nc1N` (stereo not drawn) [Example 628, 2-amino-N-(4-hydroxy-2,3-dihydro-1H-inden-1-yl)-3-methyl-N-((5-(trifluoromethyl)pyridin-2-yl)methyl)quinoline-6-carboxamide], for which the IC50 with HCT116 MTAP null cells (HCT116-MTAP null, 144 h) came out at 53 nM; with HCT116 WT cells (Homo sapiens, HCT-116, 144 h), 440 nM. Also, the inhibition constant (Ki) on PRMT5/MEP50 was 3 to 4 nM.
The like results for `Cc1cc2cc(C(=O)N(Cc3ccc(C(F)(F)F)cn3)C3CCc4nc(N)ncc4C3)ccc2nc1N` (stereo not drawn) [Example 668, 2-amino-N-(2-amino-5,6,7,8-tetrahydroquinazolin-6-yl)-3-methyl-N-[ [5-(trifluoromethyl)-2-pyridyl]methyl] quinoline-6-carboxamide] were, in that order, 270 nM, more than 1000 nM and 4.69 nM.
Taken in the same sequence, the figures for `Cc1cc2cc(C(=O)N(Cc3ccc(C(F)(F)F)cn3)C3CCc4[nH]ncc4C3)ccc2nc1N` (stereo not drawn) [Example 672, 2-amino-3-methyl-N-(4,5,6,7-tetrahydro-1H-mdazol-5-yl)-N-[[5-(trifluoromethyl)-2-pyridyl]methyl] quinoline-6-carboxamide] were 404 nM, more than 1000 nM and 5.56 nM.
Regarding `Cc1cc2cc(C(=O)N(Cc3ccc(C(F)(F)F)cn3)C[C@H]3CC[C@H](O)CC3)ccc2nc1N` [Example 676, 2-amino-N-[(4-hydroxycyclohexyl)methyl]-3-methyl-N-[[5-(trifluoromethyl)-2-pyridyl]methyl] quinoline-6-carboxamide], the concentration for half-maximal inhibition (IC50) is 255 nM in the assay on HCT116 MTAP null cells (HCT116-MTAP null, 144 h) and more than 1000 nM in the assay with HCT116 WT cells (Homo sapiens, HCT-116, 144 h). For the same compound, at PRMT5/MEP50, the inhibition constant (Ki) stood at 3.88 nM.
